Results as given in patent publication US7557085B2, “Metabolic-based methods for modulating gene expression” (Wisconsin Alumni Research Foundation, priority 2005, dated 2009).
pIC50: −log10 of the molar value. Read-outs that look alike come from different tables or passages of the source.

Key:
NRSF mediated repression = test: gal4-NRSF luciferase reporter (G5-TATA-Luc) in JTC-19 cells; type: cell-based, rat
CtBP2 binding to NRSF [1] = target: T1, CtBP2 binding to NRSF (Mus musculus, UniProt P56546); test: immunoprecipitation of MYC-NRSF with KT3-CtBP2 from HEK cells at NADH concentrations
T1 construct: expressed in transfected cells; host or cells: HEK-293 cells
T1 sequence (P56546 whole entry): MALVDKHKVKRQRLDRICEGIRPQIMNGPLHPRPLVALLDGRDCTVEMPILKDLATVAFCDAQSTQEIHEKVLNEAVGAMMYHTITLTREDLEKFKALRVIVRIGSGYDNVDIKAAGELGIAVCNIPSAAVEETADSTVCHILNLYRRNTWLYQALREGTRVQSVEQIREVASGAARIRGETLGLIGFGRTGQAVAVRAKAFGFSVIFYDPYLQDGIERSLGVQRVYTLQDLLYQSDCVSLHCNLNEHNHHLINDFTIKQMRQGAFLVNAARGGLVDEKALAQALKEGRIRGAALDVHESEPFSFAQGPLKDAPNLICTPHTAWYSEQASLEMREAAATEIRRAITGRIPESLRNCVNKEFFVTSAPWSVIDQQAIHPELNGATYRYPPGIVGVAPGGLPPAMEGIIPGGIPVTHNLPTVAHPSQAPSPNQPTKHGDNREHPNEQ
Procedure: Protein was harvested, incubated with the indicated concentrations of NADH and immunoprecipitated with anti-KT3 antibody or anti-Jun antibody as sham. Immune complexes were subjected to Western blot analysis with anti-MYC antibody.
As NADH concentrations regulate CtBP2 binding to a number of transcription factors (see Zhang et al., 2002, Id.; Mirnezami et al., 2003, Id.; Kim et al., 2005, Nat Struct Mol Biol 12: 423-8) and the non-NADH binding G189A CtBP mutant abolishes metabolic sensitivity of NRSF function, CtBP2 binding to NRSF was tested as a function of NADH concentration. In these experiments, HEK cells were co-transfected with plasmids expressing MYC-tagged NRSF or KT3-tagged CtBP2 as described above. Protein was harvested, incubated with NADH at concentrations from 0-1000 nM and immunoprecipitated with anti-KT3 antibody or anti-Jun antibody as sham. Immune complexes were subjected to Western blot analysis using an anti-MYC antibody conjugated with horseradish peroxidase as described above and in Roopra et al. (2004, Id.). […] Half maximal binding occurred at a physiologically relevant concentrations of ˜70 nM (data not shown).

CtBP2 binding to NRSF [2] = target: T2, CtBP2 binding to NRSF (Homo sapiens, UniProt P56545); test: binding of recombinant 6x-HIS-CtBP2 to immunopurified MYC-tagged NRSF with NADH; conditions: recombinant CtBP2 pre-incubated with NADH
T2 construct: made in house
Procedure: Immunoprecipitation experiments were performed to examine CtBP2/NRSF binding and the effect of increasing NADH concentration on such binding. In these experiments, soluble recombinant 6×-HIS-tagged CtBP2 (produced using the Qiagen Expression System, Qiagen, Valencia, Calif., according to the manufacturer's instructions) was pre-incubated with indicated concentrations of NADH and then added to immunopurified, antibody and bead bound MYC-tagged NRSF protein (Roopra et al., 2000, Id.) while maintaining the appropriate NADH concentration. The resulting complexes were harvested, washed and subjected to Western blot analysis with an antibody to the 6×-HIS tag on CtBP2 (Qiagen). CtBP2 binding to NRSF is abrogated in the presence of NADH, showing that the NRSF-CtBP2 interaction is sensitive to NADH concentration.

[Cl-].[Cl-].[Co+2] [CoCl2, reference compound]
repression of luciferase reporter gene expression by NRSF (fold repression gal4 DBD/gal4-NRSF) (NRSF mediated repression): decreased repression

NC(=O)C1=CN([C@@H]2O[C@H](COP(=O)(O)OP(=O)(O)OC[C@H]3O[C@@H](n4cnc5c(N)ncnc54)[C@H](O)[C@@H]3O)[C@@H](O)[C@H]2O)C=CC1 [NADH]
pIC50 (CtBP2 binding to NRSF [1]; HEK cell protein incubated with NADH 0-1000 nM, data not shown, read-out: NADH concentration of half maximal binding of CtBP to NRSF): ~7.15
effect on binding of CtBP to NRSF (CtBP2 binding to NRSF [1]; increasing concentrations of NADH, 0-1000 nM, dose dependent): disrupted binding
CtBP2 binding to NRSF (CtBP2 binding to NRSF [2]): abrogated

O=C(O)CC(O)(CC(=O)O)C(=O)O [citrate, reference compound]
repression of luciferase reporter gene expression by NRSF (fold repression gal4 DBD/gal4-NRSF) (NRSF mediated repression; JTC-19 cells, 16 hrs): increased repression
